Test results taken from patent US20180256673A1, “METHODS FOR TREATING FUNGAL INFECTIONS” (priority 2015, published 2018).
Where “and” joins values, the source holds several entries; their conditions need not be identical. Identical values can stand only once. Like-named read-outs stand apart in the source and are kept apart here. Starred links: 1 amine or outer side, 2 acyl side, 3 side chain; linkers in the order of their positions; H or OH if unused. Positions of bridges follow the written chain, without caps; N, C: chain ends. Non-standard residues stand in square brackets, D forms with d. Residues, ends and D or L forms follow the SMILES beside them. *: point of attachment. Orn(4R-OH,5R-OCH2CH2NMe3+) = C[N+](C)(C)CCO[C@@H](N[*:3])[C@H](O)C[C@H](N[*:1])C(=O)[*:2]; pTerphenylCO(4''-OnC5H11) = CCCCCOc1ccc(-c2ccc(-c3ccc(C(=O)*)cc3)cc2)cc1; hTyr(3S-OH,4S-OH) = N[C@H](C(=O)O)[C@H](O)[C@@H](O)c1ccc(O)cc1; Pro(3S-OH,4S-Me) = C[C@H]1CN[C@H](C(=O)O)[C@H]1O; Hyp = O=C(O)[C@@H]1C[C@@H](O)CN1

Key:
C. parapsilosis CP02 [1] = assay type: cell-based, Candida parapsilosis; conditions: replicate plates 1-3, listed as CMP1
Experimental: (§1) Spontaneous mutant selection. […] Three individual colonies from each strain were used to start cultures in RPMI. […] One milliliter aliquots were spread onto SDA plates containing drug with sterile glass beads. Starting viable count was enumerated by triplicate plating of serial dilutions of the starting inoculum. […] Glycerol stocks of putative mutant colonies were stored at −80° C. […] Spontaneous mutation frequencies were calculated by dividing the number of resistant colonies on a given plate by the starting inoculum plated. A subset of mutants (weighted heavily towards those selected with CMP1) were then evaluated by MIC and sequencing of FKS gene hot spot regions.

Aspergillus fumigatus = test: Broth microdilution of invasive fungal isolates (CLSI M27-A3/M38-A2), MEC; assay type: cell-based; conditions: 56 isolates
[2] = tested on: C. glabrata vaginal isolates; test: Susceptibility testing of VVC clinical isolates at pH 7 and 4 (CLSI M27-A3); assay type: cell-based, Candida glabrata; conditions: for MIC90: Nakaseomyces glabratus
[3] = tested on: C. glabrata ATCC 90030, ATCC 2001; assay type: cell-based, Candida glabrata; conditions: for Freq. (replicate mutation frequency): replicate plates 1-3, listed as CMP1; for Plate concentration: SDA, minimum concentration to cleanly inhibit growth
Experimental: as §1

C. parapsilosis = test: Antifungal susceptibility testing (CLSI M27-S4); conditions: WT (19 isolates); 24 hr
Experimental: Antifungal susceptibility testing. Antifungal susceptibility testing was performed in triplicate for a collection of 95 Candida strains (20 C. albicans, 20 C. glabrata, 2 C. dubliniensis, 15 C. krusei, 19 C. parapsilosis, and 19 C. tropicalis) that included 30 isolates showing an echinocandin resistance (ER) phenotype (caspofungin-resistant) in accordance with the guidelines described in the Clinical and Laboratory Standards Institute (CLSI) document M27-S4. […] Stock solutions of the drugs were kept at −86° C.

[4] = tested on: 1,3-β-D-glucan synthase from C. glabrata; test: Glucan synthase (GS) inhibition assay
C. krusei ATCC 6258 = assay type: cell-based, Candida krusei
Experimental: as §1

C. parapsilosis CP02 [5] = test: microbe, parasite or virus in culture; assay type: cell-based, Candida parapsilosis; conditions: Lodderomyces parapsilosis
Candida parapsilosis = test: Broth microdilution of invasive fungal isolates (CLSI M27-A3/M38-A2); assay type: cell-based; conditions: 92 isolates

## CCCCCOc1ccc(-c2ccc(-c3ccc(C(=O)N[C@H]4C[C@@H](O)[C@@H](OCC[N+](C)(C)C)NC(=O)[C@@H]5[C@@H](O)[C@@H](C)CN5C(=O)[C@H]([C@@H](C)O)NC(=O)[C@H]([C@H](O)[C@@H](O)c5ccc(O)cc5)NC(=O)[C@@H]5C[C@@H](O)CN5C(=O)[C@H]([C@@H](C)O)NC4=O)cc3)cc2)cc1 [Compound 1] ({pTerphenylCO(4''-OnC5H11)}-[Orn(4R-OH,5R-OCH2CH2NMe3+)]T[Hyp][hTyr(3S-OH,4S-OH)]T[Pro(3S-OH,4S-Me)]; lactam 1-C)
C. parapsilosis CP02 [1]
  Freq. (replicate mutation frequency): 2.08E−08 (2×) and 9.62E−09
Aspergillus fumigatus
  Cumulative % of isolates inhibited at MEC 0.015 μg/mL: (92.9) %
  Cumulative % of isolates inhibited at MEC 0.03 μg/mL: (100.0) %
  Cumulative % of isolates inhibited at MEC ≤0.008 μg/mL: (41.1) %
  Number of isolates inhibited at MEC 0.015 μg/mL: 29
  Number of isolates inhibited at MEC 0.03 μg/mL: 4
  Number of isolates inhibited at MEC ≤0.008 μg/mL: 23
[2]; 21 VVC isolates, 24 h, pH 4
  Number of isolates at MIC 0.125 μg/mL: 2
  Number of isolates at MIC 0.25 μg/mL: 3
  Number of isolates at MIC 0.5 μg/mL: 15
  Number of isolates at MIC 2 μg/mL: 1
[2]; 21 VVC isolates, 24 h, pH 7
  Number of isolates at MIC 0.06 μg/mL: 3
  Number of isolates at MIC 0.125 μg/mL: 17
  Number of isolates at MIC 2 μg/mL: 1
[2]; 21 VVC isolates, 48 h, pH 4
  Number of isolates at MIC 0.25 μg/mL: 2
  Number of isolates at MIC 0.5 μg/mL: 8
  Number of isolates at MIC 1 μg/mL: 9
  Number of isolates at MIC 2 μg/mL: 2
[2]; 21 VVC isolates, 48 h, pH 7
  Number of isolates at MIC 0.06 μg/mL: 2
  Number of isolates at MIC 0.125 μg/mL: 16
  Number of isolates at MIC 0.25 μg/mL: 1
  Number of isolates at MIC 0.5 μg/mL: 1
  Number of isolates at MIC 2 μg/mL: 1
[2]; 24 h, pH 4
  MIC90: 0.5 µg/mL
[2]; 24 h, pH 7
  MIC90: 0.125 µg/mL
[2]; 48 h, pH 4
  MIC90: 1 µg/mL
[2]; 48 h, pH 7
  MIC90: 0.25 µg/mL
[3]; ATCC 2001
  Median mutation frequency: 3.16E−08
  Freq. (replicate mutation frequency): 3.16E−08 and 3.79E−08 and 1.17E−08
  Plate concentration: 0.25 µg/mL
[3]; ATCC 90030
  Median mutation frequency: 1.35E−08
  Freq. (replicate mutation frequency): 3.52E−08 and 1.26E−08 and 1.35E−08
  Plate concentration: 0.25 µg/mL
C. parapsilosis
  MIC median (range): 2 (2-4) mg/L
[4]; DPL50, WT
  IC50: 2.57 ng/mL
[4]; F659del mutant GS, 10,000 ng/mL
  GS activity after treatment with a high dose: did not exhibit significant reductions in activity
C. krusei ATCC 6258
  Median mutation frequency: 3.86E−09
C. krusei ATCC 6258; SDA, minimum concentration to cleanly inhibit growth
  Plate concentration: 0.25 µg/mL
C. krusei ATCC 6258; replicate plates 1-3, listed as CMP1
  Freq. (replicate mutation frequency): 1.54E−08 and 3.51E−09 and 3.86E−09
C. parapsilosis CP02 [5]; CP02, CP02 P20-1, selecting drug ANID
  MIC: 4 µg/mL
C. parapsilosis CP02 [5]; CP02, CP02 P20-1, selecting drug CMP1
  MIC: 4 µg/mL
C. parapsilosis CP02 [5]; CP02, read-out: MIC P20, CP02, total population after 20 passages with the selecting drug, MIC of selecting drug
  MIC: 4 µg/mL
Candida parapsilosis
  Cumulative % of isolates inhibited at MIC 0.5 μg/mL: (23.9) %
  Cumulative % of isolates inhibited at MIC 1 μg/mL: (62.0) %
  Cumulative % of isolates inhibited at MIC 2 μg/mL: (98.9) %
  Cumulative % of isolates inhibited at MIC 4 μg/mL: (100.0) %
  Number of isolates inhibited at MIC 0.5 μg/mL: 22
  Number of isolates inhibited at MIC 1 μg/mL: 35
  Number of isolates inhibited at MIC 2 μg/mL: 34
  Number of isolates inhibited at MIC 4 μg/mL: 1
Candida parapsilosis; Lodderomyces parapsilosis, read-out: MIC50
  MIC50: 1 µg/mL
Candida parapsilosis; Lodderomyces parapsilosis, read-out: MIC90
  MIC90: 2 µg/mL
